Data reported in patent publication US20250025550A1, “ADJUVANT COMPOUNDS AND FORMULATIONS” (ADJUVANCE TECHNOLOGIES, INC., priority 2021, published 2025).
“And” between values parts separate entries of the source, which are not always exact repeats. Equal values may be shown once.

What was measured:
CD-i mice = conditions: mouse, in vivo
[1] = pH of TQL-1055 HP-β-CD solutions (Example 1); type: physicochemical
Method: (§1) Two solutions were prepared: (1) 15% w/v HP-β-CD in 1 ml of PBS, add TQL-1055 (crushed) to achieve 1 mg/ml; and (2) 20% w/v HP-β-CD in 1 ml of PBS; add TQL-1055 (crushed) to achieve 1 mg/ml. Both solutions were solubilized using heat and sonication for one hour at 60° C.

[2] = Stability of TQL-1055 in HP-β-CD solution: HPLC; type: physicochemical; set-up: unit not given here; conditions: 1 mg/ml TQL-1055, 20% w/v HP-β-CD in PBS
Method: (§2) Solutions containing 20% w/v HP-β-CD and 1 mg/ml dissolved TQL-1055 were prepared according to the following procedure: (1) crush TQL-1055 and sonicate in PBS; (2) add HP-β-CD solution to create a final concentration of 1 mg/ml TQL-1055, 20% HP-β-CD in PBS buffer (3) sonicate for ˜30-60 minutes at 60C (4) obtain a clear solution having 1 mg/ml TQL-1055; 20% w/v HP-R-CD. Control samples containing 20% HP-β-CD were prepared. Optical density and pH were measured at t=1 day, 1 week, 1 month, and 2 months. HPLC was conducted at t=1 day, 1 week, 1 month, and 2 months.

[3] = Optical density (clarity) of TQL-1055 in HP-β-CD solution; type: physicochemical; conditions: for Dissolution of TQL-1055: heat and sonication one hour at 60° C.
Method: as §1
Optical density shown below. Clarity is defined against background solvent optical density ([…]):
Three solutions were prepared: (1) 15% w/v HP-β-CD in 1 ml of PBS, add TQL-1055 (crushed) to achieve 2 mg/ml; (2) 20% w/v HP-β-CD in 1 ml of PBS; add TQL-1055 (crushed) to achieve 2 mg/ml; and (3) 25% w/v HP-β-CD in 1 ml of PBS; add TQL-1055 (crushed) to achieve 2 mg/ml. Solutions were solubilized using heat and sonication for one hour at 60° C. […]

[4] = Stability of TQL-1055 in HP-β-CD solution: pH; type: physicochemical; conditions: 1 mg/ml TQL-1055, 20% w/v HP-β-CD in PBS
Method: as §2

[5] = Solubility in water at physiological pH; type: physicochemical; conditions: free acid form
[6] = Stability of TQL-1055 in HP-β-CD solution: clarity (optical density); type: physicochemical; conditions: 1 mg/ml TQL-1055, 20% w/v HP-β-CD in PBS
Method: as §2

[7] = 1 mg/ml TQL-1055 in 15% w/v HP-β-CD in PBS, 48 hours (stored at 5° C.)
[8] = 1 mg/ml TQL-1055 in 15% w/v HP-β-CD in PBS, 48 hours (stored at RT)
[9] = 1 mg/ml TQL-1055 in 20% w/v HP-β-CD in PBS, 48 hours (stored at 5° C.)
[10] = 1 mg/ml TQL-1055 in 20% w/v HP-β-CD in PBS, 48 hours (stored at RT)
[11] = 2 mg/ml in 15% w/v HP-β-CD in PBS (solution 1)

Q: Which results are given for `CC1O[C@@H](OC2C(O)[C@@H](NC(=O)CCCCCCCCCCC(=O)O)C(CO)O[C@H]2OC(=O)[C@]23CCC(C)(C)CC2C2=CCC4C5(C)CC[C@H](O)C(C)(C=O)C5CCC4(C)C2(C)CC3O)C(O)C(O)[C@H]1O[C@@H]1OC[C@@H](O)C(O)C1O` (stereo partly shown) [TQL-1055]?
A: Mortality (follow-on studies, text) (CD-i mice): did not result in mortality; pH [1, 7]: (pH = 7.26); pH [1, 8]: (pH = 7.28); pH [1, 9]: (pH = 7.28); pH [1, 10]: (pH = 7.21); HPLC ([2]; 5 C., 1 month): 106.1 and 107.9; HPLC ([2]; 5 C., 1 week): 104.4 and 108.9; HPLC ([2]; 5 C., 2 months): 109 and 105; HPLC ([2]; 5 C., Day 1): 105.4 and 109.4; HPLC ([2]; 25 C., 1 month): 108.7 and 107.5; HPLC ([2]; 25 C., 1 week): 109.2 and 106.9; HPLC ([2]; 25 C., 2 months): 105; HPLC ([2]; 25 C., Day 1): 106.1 and 109.4; HPLC ([2]; −20 C., 1 month): 109.6; HPLC ([2]; −20 C., 2 months): 105.3 and 102; HPLC ([2]; −20 C., Day 1): 100 and 105.3; Optical density ([3]; 1 mg/ml TQL-1055 in 15% w/v HP-β-CD in PBS, 0 hour (after sonication)): 0.055; Optical density ([3]; 1 mg/ml TQL-1055 in 15% w/v HP-β-CD in PBS, 24 hours (stored at 5° C.)): 0.051; Optical density ([3]; 1 mg/ml TQL-1055 in 15% w/v HP-β-CD in PBS, 24 hours (stored at RT)): 0.051; Optical density [3, 7]: 0.052; Optical density [3, 8]: 0.051; Optical density ([3]; 1 mg/ml TQL-1055 in 20% w/v HP-β-CD in PBS, 0 hour (after sonication)): 0.058; Optical density ([3]; 1 mg/ml TQL-1055 in 20% w/v HP-β-CD in PBS, 24 hours (stored at 5° C.)): 0.050; Optical density ([3]; 1 mg/ml TQL-1055 in 20% w/v HP-β-CD in PBS, 24 hours (stored at RT)): 0.050; Optical density [3, 9]: 0.056; Optical density [3, 10]: 0.051; Dissolution of TQL-1055 ([3]; 1 mg/ml in 15% and in 20% w/v HP-β-CD in PBS): dissolved completely; Optical density ([3]; 2 mg/ml TQL-1055 in 15% w/v HP-β-CD in PBS, 0 hour (after sonication), replicates): 0.083, 0.083, (2×) and 0.083 (n = 3); Optical density ([3]; 2 mg/ml TQL-1055 in 15% w/v HP-β-CD in PBS, 24 hours (stored at RT), replicates): 0.081, 0.081; Optical density ([3]; 2 mg/ml TQL-1055 in 15% w/v HP-β-CD in PBS, 48 hours (stored at RT), replicates): 0.067 and 0.068; Optical density ([3]; 2 mg/ml TQL-1055 in 20% w/v HP-β-CD in PBS, 0 hour (after sonication), replicates): 0.061 and 0.066 and 0.068 (n = 3); Optical density ([3]; 2 mg/ml TQL-1055 in 20% w/v HP-β-CD in PBS, 24 hours (stored at RT), replicates): 0.054, 0.054; Optical density ([3]; 2 mg/ml TQL-1055 in 20% w/v HP-β-CD in PBS, 48 hours (stored at RT), replicates): 0.049 and 0.053; Optical density ([3]; 2 mg/ml TQL-1055 in 25% w/v HP-β-CD in PBS, 0 hour (after sonication), replicates): 0.052 (n = 3) and 0.049 and 0.051; Optical density ([3]; 2 mg/ml TQL-1055 in 25% w/v HP-β-CD in PBS, 24 hours (stored at RT), replicates): 0.053 and 0.054; Optical density ([3]; 2 mg/ml TQL-1055 in 25% w/v HP-β-CD in PBS, 48 hours (stored at RT), replicates): 0.057 and 0.055; Clarity of solution [3, 11]: not completely clear; Optical density (OD) [3, 11]: > 0.060; Dissolution of TQL-1055 ([3]; 2 mg/ml in 20% (solution 2) and 25% (solution 3) w/v HP-β-CD in PBS): dissolved completely; pH ([4]; 5 C., 1 month): 7.81 and 7.32; pH ([4]; 5 C., 1 week): 7.32 and 7.25; pH ([4]; 5 C., 2 month): 7.35 and 7.48; pH ([4]; 5 C., Day 1): 7.47 and 7.43; pH ([4]; 25 C., 1 month): 7.82 and 7.50; pH ([4]; 25 C., 1 week): 7.35 and 7.00; pH ([4]; 25 C., 2 month): 7.51 and 7.44; pH ([4]; 25 C., Day 1): 7.45 and 7.47; pH ([4]; −20 C., 1 month): 7.24 and 7.53; pH ([4]; −20 C., 1 week): 7.19 and 7.26; pH ([4]; −20 C., 2 month): 7.41 and 7.46; pH ([4]; −20 C., Day 1): 7.35 and 7.41; solubility in water [5]: poor solubility in water at physiological pH; Clarity (OD) ([6]; 5 C., 1 month): 0.0485 and 0.051; Clarity (OD) ([6]; 5 C., 1 week): 0.051 and 0.053; Clarity (OD) ([6]; 5 C., 2 month): 0.058 and 0.050; Clarity (OD) ([6]; 5 C., Day 1): 0.054 and 0.053; Clarity (OD) ([6]; 25 C., 1 month): 0.053 and 0.0455; Clarity (OD) ([6]; 25 C., 1 week): 0.049 and 0.052; Clarity (OD) ([6]; 25 C., 2 month): 0.051 and 0.05; Clarity (OD) ([6]; 25 C., Day 1): 0.052 and 0.050; Clarity (OD) ([6]; −20 C., 1 month): 0.049 and 0.0475; Clarity (OD) ([6]; −20 C., 1 week): 0.05 and 0.051; Clarity (OD) ([6]; −20 C., 2 month): 0.054; Clarity (OD) ([6]; −20 C., Day 1): 0.056 and 0.052
